The values that follow come from patent US20110097745A1, “Method For Detecting Microbes” (priority 2007, published 2011).

In brackets after ≈: the same amount, converted by molar mass.

What all share (format): cell-based
The test system of assay [1] is infecting bacteria of urine samples. The assay can be described thus: BLT antibiotic susceptibility of urine samples. For antibiotic susceptibility of urine samples: key: R = resistant; S = susceptible. More on the design: BLT (luminescence): unit not given here. The conditions noted are these: for BLT (luminescence): 3 hrs 37 C, concentrations given in Table 5. The procedure: Six fresh urine samples were obtained from a local clinic and examined for bacteriuria (>10^5 cells/mL urine) and the antibiotic susceptibility of the infecting bacteriuria. A tube containing a an antibiotic mixture that would eliminate all infecting bacteria but not effect the lux cells (Ampicillin, Kanamycin, Tetracyclin, and Chloramphenicol) served as a control.
Each urine sample was diluted in Medium 1 to yield a final concentration of 3%. 0.1 mL of the diluted samples were then incubated for 3 hrs. at 37 degrees Celsius in a microtitre plate, with or without an antimicrobial substance at the concentrations given in Table 5).
An equal volume of Medium 2 containing 10 ng/ml autoinducer and supplemented with 10^6 of the lux cells was then added to each well. The microtiter plate was then incubated at 28 degrees/Celsius and the luminescence was measured using a plate reader luminometer.
Luminescence was measured in the absence of antibiotics, in the presence of a mixture of antibiotics and in the presence of a single antibiotic from the mixture.
When the ratio of the luminescence measured in the presence of the single antibiotic to that measured in the presence of the antibiotic mix exceeds a second predetermined constant (e.g. 3) then the infecting bacteria are […] to the antibiotic.

The subject of assay [2] is E. coli (W4110). The assay can be described thus: overnight disk diffusion test. The conditions noted are these: 16 hrs 37 C. On the procedure:
(§1) Infecting bacteria (10^6 cells/ml from overnight grown cultures) were spread on LA plates on which 15 mm disks, saturated with various antibiotics, had been placed. After incubating the plates at 37 degrees Celsius for 16 hrs the zone of inhibition was determined for each strain. (Abbreviations used in FIG. 1a and Table 1a: CAP—Chloramphenicol; KAN—Kanamycin; AMP—Ampicillin; CEP—Cephamezin GEN—Gentamycin).

In assay [3] the test system is S. typhimirium (772). The assay can be described thus: overnight disk diffusion test. To be noted: 16 hrs 37 C. On the procedure: as §1
In assay [4] the test system is infecting bacteria of urine samples. The assay can be described thus: antibiotics disc inhibition zone, urine samples (standard analysis). The procedure:
A standard analysis (urine culture colony count) was performed to evaluate bacterial load (Table 5a) and antibiotic susceptibility (Table 5b).

For assay [5], the system named is S. typhi. The assay can be described thus: microbe, parasite or virus in culture.

Take `Cc1nnc(SCC2=C(C(=O)O)N3C(=O)[C@@H](NC(=O)Cn4cnnn4)[C@H]3SC2)s1` [Cephamezin]: the “antibiotic susceptibility of urine samples” value (“antibiotic susceptibility” below) in assay [1] (urine sample 1), in assay [1] (urine sample 2), in assay [1] (urine sample 3), in assay [1] (urine sample 4), in assay [1] (urine sample 5) and in assay [1] (urine sample 6) was “S” in each case. In addition, the “BLT (luminescence)” value was 61 in assay [1] (urine sample 1, 3% urine); 2.3 in assay [1] (urine sample 2, 3% urine); 21.8 in assay [1] (urine sample 3, 3% urine); 30 in assay [1] (urine sample 4, 3% urine); 16 in assay [1] (urine sample 5, 3% urine); 36.8 in assay [1] (urine sample 6, 3% urine). Besides, the zone of inhibition is recorded as 30 mm in assay [2] (disk 30 ppm) and 40 mm in assay [3] (disk 30 ppm). Also, the “Antibiotics disc inhibition zone” value in assay [4] (urine sample 1, 30 ppm) worked out at 7 mm; in assay [4] (urine sample 2, 30 ppm), 5 mm; in assay [4] (urine sample 3, 30 ppm) it was 7 mm; in assay [4] (urine sample 4, 30 ppm) it was 5 mm; in assay [4] (urine sample 6, 30 ppm), 6 mm.
In the case of `CC1(C)S[C@@H]2[C@H](NC(=O)[C@H](N)c3ccccc3)C(=O)N2[C@H]1C(=O)O` [Ampicillin], the “antibiotic susceptibility” value is given as “R” in assay [1] (urine sample 1); “R” in assay [1] (urine sample 2); “S” in assay [1] (urine sample 3); “S” in assay [1] (urine sample 4); “R” in assay [1] (urine sample 5); “S” in assay [1] (urine sample 6). Also, the “BLT (luminescence)” value in assay [1] (urine sample 1, 3% urine) came out at 1; in assay [1] (urine sample 2, 3% urine) it was 0.144; in assay [1] (urine sample 3, 3% urine) it was 5.11; in assay [1] (urine sample 4, 3% urine) it was 30; in assay [1] (urine sample 5, 3% urine), 0.42; in assay [1] (urine sample 6, 3% urine), 18. Further, the zone of inhibition stood at 40 mm in assay [2] (disk 40 ppm) and 30 mm in assay [3] (disk 40 ppm). Also, the “Antibiotics disc inhibition zone” value in assay [4] (urine sample 1, 40 ppm) was found to be 0 mm; in assay [4] (urine sample 2, 40 ppm) it was 0 mm; in assay [4] (urine sample 3, 40 ppm), 5 mm; in assay [4] (urine sample 4, 40 ppm), 7 mm; in assay [4] (urine sample 6, 40 ppm) it was 5 mm.
Take `NC[C@H]1O[C@H](O[C@H]2[C@H](O)[C@@H](O[C@H]3O[C@H](CO)[C@@H](O)[C@H](N)[C@H]3O)[C@H](N)C[C@@H]2N)[C@H](O)[C@@H](O)[C@@H]1O` [Kanamicin, Kanamycin]: the “antibiotic susceptibility” value in assay [1] (urine sample 1), in assay [1] (urine sample 2), in assay [1] (urine sample 3), in assay [1] (urine sample 4), in assay [1] (urine sample 5) and in assay [1] (urine sample 6) was “S” throughout. In addition, the “BLT (luminescence)” value in assay [1] (urine sample 1, 3% urine) was 64; in assay [1] (urine sample 2, 3% urine), 42; in assay [1] (urine sample 3, 3% urine), 49; in assay [1] (urine sample 4, 3% urine) it was 30; in assay [1] (urine sample 5, 3% urine) it was 16; in assay [1] (urine sample 6, 3% urine), 38. Moreover, the zone of inhibition is listed as 25 mm in assay [2] (disk 30 ppm) and 20 mm in assay [3] (disk 30 ppm). In addition, the “LU, fold increase over control (no antibiotics added)” value in assay [5] (0.117 ppm) is 1.4; in assay [5] (0.234 ppm), 1.62; in assay [5] (0.468 ppm), 1.49; in assay [5] (0.937 ppm), 1.82; in assay [5] (1.875 ppm) it was 2.3; in assay [5] (3.75 ppm), 2.45. Further, the “LU, fold increase over control (no antibiotics added)” value in assay [5] (7.5 ppm) worked out at 3.13; in assay [5] (15 ppm), 5.79; in assay [5] (30 ppm), 6.27. The MIC in assay [5] (Salmonella enterica, TYPHI, lowest concentration giving two-fold increase of tester luminescence above control) was approximately 1 µg/mL (≈ 2.06 µM). Moreover, the “Antibiotics disc inhibition zone” value in assay [4] (urine sample 1, 30 ppm) was 5 mm; in assay [4] (urine sample 2, 30 ppm), 5 mm; in assay [4] (urine sample 3, 30 ppm), 5 mm; in assay [4] (urine sample 4, 30 ppm), 2 mm; in assay [4] (urine sample 6, 30 ppm), 1 mm.
As for `Cc1onc(-c2ccccc2Cl)c1C(=O)N[C@@H]1C(=O)N2[C@@H]1SC(C)(C)[C@@H]2C(=O)[O-].[Na+]` [Orbenil], the “antibiotic susceptibility” value is “R” in assay [1] (urine sample 1); “R” in assay [1] (urine sample 2); “R” in assay [1] (urine sample 3); “S” in assay [1] (urine sample 4); “R” in assay [1] (urine sample 5); “R” in assay [1] (urine sample 6). The “BLT (luminescence)” value in assay [1] (urine sample 1, 3% urine) came to 0.8; in assay [1] (urine sample 2, 3% urine), 0.087; in assay [1] (urine sample 3, 3% urine) it was 0.76; in assay [1] (urine sample 4, 3% urine), 30; in assay [1] (urine sample 5, 3% urine), 0.63; in assay [1] (urine sample 6, 3% urine), 0.18. Also, the “Antibiotics disc inhibition zone” value in assay [4] (urine sample 1, 10 ppm) worked out at 0 mm; in assay [4] (urine sample 2, 10 ppm), 0 mm; in assay [4] (urine sample 3, 10 ppm), 0 mm; in assay [4] (urine sample 4, 10 ppm), 6 mm; in assay [4] (urine sample 6, 10 ppm), 0 mm.
As for `CO/N=C(\C(=O)N[C@@H]1C(=O)N2C(C(=O)O)=C(COC(N)=O)CS[C@H]12)c1ccco1` [Cefuroxime], the “antibiotic susceptibility” value in assay [1] (urine sample 1), in assay [1] (urine sample 2), in assay [1] (urine sample 3), in assay [1] (urine sample 4), in assay [1] (urine sample 5) and in assay [1] (urine sample 6) was “S” throughout. The “BLT (luminescence)” value in assay [1] (urine sample 1, 3% urine) is 55; in assay [1] (urine sample 2, 3% urine), 1.36; in assay [1] (urine sample 3, 3% urine), 2.4; in assay [1] (urine sample 4, 3% urine), 31; in assay [1] (urine sample 5, 3% urine), 8.6; in assay [1] (urine sample 6, 3% urine) it was 0.76. Moreover, the “Antibiotics disc inhibition zone” value in assay [4] (urine sample 1, 30 ppm) was determined as 6 mm; in assay [4] (urine sample 2, 30 ppm), 7 mm; in assay [4] (urine sample 3, 30 ppm) it was 5 mm; in assay [4] (urine sample 4, 30 ppm), 5 mm; in assay [4] (urine sample 6, 30 ppm), 4 mm.
On to `CC1(C)S[C@@H]2[C@H](NC(=O)Cc3ccccc3)C(=O)N2[C@H]1C(=O)O` [Penicillin G], for which the “antibiotic susceptibility” value in assay [1] (urine sample 1) was “R”; in assay [1] (urine sample 2) it was “R”; in assay [1] (urine sample 3), “S”; in assay [1] (urine sample 4) it was “S”; in assay [1] (urine sample 5), “R”; in assay [1] (urine sample 6) it was “S”. The “BLT (luminescence)” value in assay [1] (urine sample 1, 3% urine) came to 0.5; in assay [1] (urine sample 2, 3% urine), 0.93; in assay [1] (urine sample 3, 3% urine), 4; in assay [1] (urine sample 4, 3% urine), 30; in assay [1] (urine sample 5, 3% urine) it was 0.417; in assay [1] (urine sample 6, 3% urine) it was 11. The “Antibiotics disc inhibition zone” value in assay [4] (urine sample 1, 40 ppm) was 0 mm; in assay [4] (urine sample 2, 40 ppm) it was 0 mm; in assay [4] (urine sample 3, 40 ppm), 3 mm; in assay [4] (urine sample 4, 40 ppm), 7 mm; in assay [4] (urine sample 6, 40 ppm) it was 2 mm.
